“And” between values parts separate entries of the source, which are not always exact repeats. Identical values can stand only once.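 48-hour exposure; five concentrations; linearly interpolated endpoints. GI50 = concentration required for 50% inhibition of growth. TGI denotes the concentration required for complete inhibition of growth.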
Key:
Test in all cases: NCI anticancer screen, dose series, 48 h
[1] = tested on: 786-0 renal
[2] = tested on: A498 renal
[3] = tested on: ACHN renal
[4] = tested on: CAKI-1 renal
[5] = tested on: CCRF-CEM leukemia
[6] = tested on: COLO 205 colon
[7] = tested on: DU-145 prostate
[8] = tested on: EKVX NSCLC
[9] = tested on: HCC-2998 colon
[10] = tested on: HCT-116 colon
[11] = tested on: HCT-15 colon
[12] = tested on: HL-60(TB) leukemia
[13] = tested on: HOP-62 NSCLC
[14] = tested on: HOP-92 NSCLC
[15] = tested on: HS 578T breast
[16] = tested on: HT29 colon
[17] = tested on: IGROV1 ovarian
[18] = tested on: K-562 leukemia
[19] = tested on: KM12 colon
[20] = tested on: LOX IMVI melanoma
[21] = tested on: M14 melanoma
[22] = tested on: MCF7 breast
[23] = tested on: MDA-MB-231 breast
[24] = tested on: MDA-MB-435
[25] = tested on: NCI-H226 lung
[26] = tested on: NCI-H23 lung
[27] = tested on: NCI-H460 lung
[28] = tested on: NCI/ADR-RES ovarian
[29] = tested on: OVCAR-4 ovarian
[30] = tested on: OVCAR-8 ovarian
[31] = tested on: PC-3 prostate
[32] = tested on: RPMI-8226 leukemia
[33] = tested on: RXF 393 renal
[34] = tested on: SF-268 CNS
[35] = tested on: SF-295 CNS
[36] = tested on: SF-539 CNS
[37] = tested on: SK-MEL-2 melanoma
[38] = tested on: SK-MEL-28 melanoma
[39] = tested on: SK-MEL-5 melanoma
[40] = tested on: SK-OV-3 ovarian
[41] = tested on: SNB-19 CNS
[42] = tested on: SNB-75 CNS
[43] = tested on: SR leukemia
[44] = tested on: SW-620 colon
[45] = tested on: T-47D breast
[46] = tested on: TK-10 renal
[47] = tested on: U251 CNS
[48] = tested on: UACC-257 melanoma
[49] = tested on: UACC-62 melanoma
[50] = tested on: UO-31 renal
[51] = tested on: A549 NSCLC
[52] = tested on: MALME-3M melanoma
[53] = tested on: OVCAR-5 ovarian
[54] = tested on: BT-549 breast

## O=C(/C=C\c1ccccc1)N1CCc2ccccc2C1
[1]
  TGI: > 100 µM
[2]
  TGI: > 100 µM
[3]
  TGI: > 100 µM
[4]
  TGI: > 100 µM
[5]
  TGI: 91.3 µM
[6]
  TGI: 57.1 µM
[7]
  TGI: > 100 µM
[8]
  TGI: > 100 µM
[9]
  TGI: > 100 µM
[10]
  TGI: > 100 µM
[11]
  TGI: > 100 µM
[12]
  TGI: 83.6 µM
[13]
  TGI: > 100 µM
[14]
  TGI: > 100 µM
[15]
  TGI: > 100 µM
[16]
  TGI: > 100 µM
[17]
  TGI: > 100 µM
[18]
  TGI: 45.8 µM
[19]
  TGI: > 100 µM
[20]
  TGI: > 100 µM
[21]
  TGI: > 100 µM
[22]
  TGI: > 100 µM
[23]
  TGI: > 100 µM
[24]
  TGI: 84.1 µM
[25]
  TGI: > 100 µM
[26]
  TGI: 51.9 µM
[27]
  TGI: > 100 µM
[28]
  TGI: > 100 µM
[29]
  TGI: > 100 µM
[30]
  TGI: > 100 µM
[31]
  TGI: > 100 µM
[32]
  TGI: 52.4 µM
[33]
  TGI: > 100 µM
[34]
  TGI: > 100 µM
[35]
  TGI: > 100 µM
[36]
  TGI: > 100 µM
[37]
  TGI: 91.3 µM
[38]
  TGI: > 100 µM
[39]
  TGI: 39.9 µM
[40]
  TGI: > 100 µM
[41]
  TGI: > 100 µM
[42]
  TGI: > 100 µM
[43]
  TGI: 69.1 µM
[44]
  TGI: > 100 µM
[45]
  TGI: > 100 µM
[46]
  TGI: > 100 µM
[47]
  TGI: > 100 µM
[48]
  TGI: > 100 µM
[49]
  TGI: > 100 µM
[50]
  TGI: > 100 µM

## Cc1nc(Nc2ncc(C(=O)Nc3c(C)cccc3Cl)s2)cc(N2CCN(CCO)CC2)n1
[51]
  GI50: 49.9 nM [middle of 4 runs]
[7]
  GI50: 158 nM [middle of 4 runs]
  TGI: > 10 µM and 20 µM and 13.5 µM
[11]
  GI50: 792 nM [middle of 4 runs]
[16]
  GI50: 0.0197 µM and 0.0193 µM and 0.0272 µM
[18]
  GI50: < 0.01 µM and 0.002 µM
[19]
  GI50: 7.66 µM [middle of 4 runs]
[20]
  GI50: 14.2 nM [middle of 4 runs]
[21]
  GI50: 3.51 µM [middle of 4 runs]
[52]
  GI50: 6.6 µM [middle of 4 runs]
[23]
  GI50: 19.7 nM [middle of 4 runs]
[24]
  GI50: 5.7 µM [middle of 4 runs]
[27]
  GI50: 8.34 µM [middle of 4 runs]
[28]
  GI50: 3.2 µM [middle of 4 runs]
[53]
  GI50: 38.1 nM [middle of 4 runs]
[30]
  GI50: 55.8 nM [middle of 4 runs]
[34]
  GI50: 70.4 nM [middle of 4 runs]
[36]
  GI50: 53.3 nM [middle of 4 runs]
[38]
  TGI: 29 µM and > 10 µM and 20 µM
[42]
  GI50: < 0.01 µM and 0.00468 µM and < 0.0111 µM
  TGI: 0.0257 µM and 0.0563 µM and 0.0587 µM
[46]
  GI50: 0.0222 µM and 0.0109 µM and 0.00843 µM
[47]
  GI50: 3.17 µM [middle of 4 runs]
[49]
  GI50: 5.69 µM [middle of 4 runs]

## N=C(N)c1ccc(-c2ccc(-c3ccc(Cl)c(Cl)c3)s2)nc1
[54]
  GI50: 3.18 µM
  TGI: 31.6 µM
[12]
  GI50: 1.89 µM
  TGI: 4.39 µM
[25]
  GI50: 1.94 µM
  TGI: 4.63 µM
[37]
  GI50: 3.43 µM
  TGI: 15.2 µM
[40]
  GI50: 8.06 µM
  TGI: 31.8 µM
[48]
  GI50: 2.14 µM
  TGI: 4.77 µM

— PubChem BioAssay (NCI)
